pIC50: −log10 of the molar value. Converted amounts (≈) assume the structure as drawn. Each block holds one compound with its values, some of them ahead of it. The source made the active and inactive calls. The rule behind the calls is not given here.
Tests used:
Acinetobacter baumannii [1] = experiment: Antibacterial activity against Acinetobacter baumannii S1 assessed as planktonic growth inhibition incubated for 18 to 24 hrs by CLSI protocol based assay; assay type: functional; details: time 18-24 hrs
Acinetobacter baumannii [2] = experiment: Antibiofilm activity against Acinetobacter baumannii S1 assessed as inhibition rate of biofilm formation at 100 uM incubated for 18 to 24 hrs by crystal violet staining based assay (reference value: 28.8 +/- 8.21%); assay type: functional; set-up: scale not given: the % may be the effect or the level left; details: time 18-24 hrs
Acinetobacter baumannii [3] = experiment: Antibacterial activity against Acinetobacter baumannii assessed as planktonic growth inhibition incubated for 18 to 24 hrs by CLSI protocol based assay; assay type: functional; details: time 18-24 hrs
3T3-L1 [4] = experiment: Cytotoxicity against mouse 3T3-L1 cells assessed as reduction in cell viability at 50 uM incubated for 24 hrs by MTT assay relative to control; assay type: toxicity, cell-based; details: 3t3-l1, 24 h
Acinetobacter baumannii [5] = experiment: Antibiofilm activity against Acinetobacter baumannii 1778027 assessed as inhibition of biofilm formation incubated for 18 to 24 hrs by crystal violet staining based assay; assay type: functional, organism-based
Acinetobacter baumannii [6] = experiment: Antibiofilm activity against Acinetobacter baumannii S1 assessed as inhibition of biofilm formation incubated for 18 to 24 hrs by crystal violet staining based assay; assay type: functional, organism-based
[7] = test system: Staphylococcus epidermidis; experiment: Antibiofilm activity against Staphylococcus epidermis ATCC 102555 assessed as inhibition rate of biofilm formation at 200 uM incubated for 18 to 24 hrs by crystal violet staining based assay relative to control; assay type: functional; details: time 18-24 hrs
Acinetobacter baumannii [8] = experiment: Synergistic antibacterial activity against Acinetobacter baumannii assessed as planktonic growth inhibition incubated for 18 to 24 hrs in the presence of gentamycin sulphate by CLSI protocol based checkerboard assay; assay type: functional; details: time 18-24 hrs
Escherichia coli = experiment: Antibiofilm activity against Escherichia coli Dh5alpha assessed as inhibition rate of biofilm formation at 200 uM incubated for 18 to 24 hrs by crystal violet staining based assay relative to control; assay type: functional; details: DH5-alpha, time 18-24 hrs
Acinetobacter baumannii [9] = experiment: Antibiofilm activity against Acinetobacter baumannii assessed as reduction in bacterial motility in agar plates by quorum sensing process at 100 uM incubated for 24 hrs; assay type: functional, organism-based
3T3-L1 [10] = experiment: Cytotoxicity against mouse 3T3-L1 cells assessed as reduction in cell viability at 25 uM incubated for 24 hrs by MTT assay relative to control; assay type: toxicity, cell-based; details: 3t3-l1, 24 h
3T3-L1 [11] = experiment: Cytotoxicity against mouse 3T3-L1 cells assessed as reduction in cell viability at 200 uM incubated for 24 hrs by MTT assay relative to control; assay type: toxicity, cell-based; details: 3t3-l1, 24 h
Acinetobacter baumannii [12] = experiment: Synergistic antibacterial activity against Acinetobacter baumannii assessed as planktonic growth inhibition incubated for 18 to 24 hrs in the presence of oxacillin by CLSI protocol based checkerboard assay; assay type: functional; details: time 18-24 hrs
Acinetobacter baumannii [13] = experiment: Antibiofilm activity against Acinetobacter baumannii 1780608 assessed as inhibition of biofilm formation incubated for 18 to 24 hrs by crystal violet staining based assay; assay type: functional, organism-based
Staphylococcus aureus = experiment: Antibiofilm activity against Staphylococcus aureus ATCC […] assessed as inhibition rate of biofilm formation at 200 uM incubated for 18 to 24 hrs by crystal violet staining based assay relative to control; assay type: functional; details: time 18-24 hrs
Acinetobacter baumannii [14] = experiment: Synergistic antibacterial activity against Acinetobacter baumannii assessed as fractional inhibitory concentration index incubated for 18 to 24 hrs in the presence of chloramphenicol by CLSI protocol based checkerboard assay; assay type: functional; details: time 18-24 hrs
Acinetobacter baumannii [15] = experiment: Antibiofilm activity against Acinetobacter baumannii assessed as reduction in biofilm thickness at 100 uM incubated for 24 hrs by Alexa fluor 488 staining based confocal laser microscopic analysis (reference value: 25.91); assay type: functional
Acinetobacter baumannii [16] = experiment: Antibiofilm activity against Acinetobacter baumannii assessed as reduction in extracellular polysaccharides at 100 uM incubated for 1 hrs by ELISA analysis; assay type: functional; set-up: scale not given: the % may be the effect or the level left
3T3-L1 [17] = experiment: Cytotoxicity against mouse 3T3-L1 cells assessed as reduction in cell viability at 100 uM incubated for 24 hrs by MTT assay relative to control; assay type: toxicity, cell-based; details: 3t3-l1, 24 h
Acinetobacter baumannii [18] = experiment: Synergistic antibacterial activity against Acinetobacter baumannii assessed as planktonic growth inhibition incubated for 18 to 24 hrs in the presence of chloramphenicol by CLSI protocol based checkerboard assay; assay type: functional; details: time 18-24 hrs
Acinetobacter baumannii [19] = experiment: Antibiofilm activity against Acinetobacter baumannii 1925052 assessed as inhibition of biofilm formation incubated for 18 to 24 hrs by crystal violet staining based assay; assay type: functional, organism-based
Acinetobacter baumannii [20] = experiment: Antibiofilm activity against Acinetobacter baumannii 1913061 assessed as inhibition of biofilm formation incubated for 18 to 24 hrs by crystal violet staining based assay; assay type: functional, organism-based
Acinetobacter baumannii [21] = experiment: Antibiofilm activity against Acinetobacter baumannii ATCC19606 assessed as inhibition of biofilm formation incubated for 18 to 24 hrs by crystal violet staining based assay; assay type: functional, organism-based
3T3-L1 [22] = experiment: Cytotoxicity against mouse 3T3-L1 cells assessed as reduction in cell viability at 12.5 uM incubated for 24 hrs by MTT assay relative to control; assay type: toxicity, cell-based; details: 3t3-l1, 24 h
Acinetobacter baumannii [23] = experiment: Synergistic antibacterial activity against Acinetobacter baumannii assessed as fractional inhibitory concentration index incubated for 18 to 24 hrs in the presence of gentamycin sulphate by CLSI protocol based checkerboard assay; assay type: functional; details: time 18-24 hrs
Pseudomonas aeruginosa = experiment: Antibiofilm activity against Pseudomonas aeruginosa ATCC 27853 assessed as inhibition rate of biofilm formation at 200 uM incubated for 18 to 24 hrs by crystal violet staining based assay relative to control; assay type: functional; details: time 18-24 hrs
Acinetobacter baumannii [24] = experiment: Synergistic antibacterial activity against Acinetobacter baumannii assessed as fractional inhibitory concentration index incubated for 18 to 24 hrs in the presence of oxacillin by CLSI protocol based checkerboard assay; assay type: functional; details: time 18-24 hrs
Acinetobacter baumannii [25] = experiment: Antibiofilm activity against Acinetobacter baumannii 1778027 assessed as inhibition rate of biofilm formation at 200 uM incubated for 18 to 24 hrs by crystal violet staining based assay relative to control; assay type: functional; details: time 18-24 hrs

Structure (SMILES): Cc1onc(-c2ccccc2)c1C(=O)N[C@@H]1C(=O)N2[C@@H]1SC(C)(C)[C@@H]2C(=O)O [OXACILLIN]
MIC (Acinetobacter baumannii [3]): 512 µg/mL (≈ 1280 µM)

Structure (SMILES): CC(C)(C)C(=O)Nc1ncccn1
MIC (Acinetobacter baumannii [1]): > 256 µg/mL | Activity (Acinetobacter baumannii [2]): 12.3%

Structure (SMILES): CCCCCCCCCCCCCC(=O)N1CCN(c2ncccn2)CC1
MIC (Acinetobacter baumannii [1]): > 256 µg/mL | Activity (Acinetobacter baumannii [2]): 27.9%

Structure (SMILES): CCCCCCCCCCCCCC(=O)Nc1ncc(Cl)cn1
MIC (Acinetobacter baumannii [1]): > 256 µg/mL | Activity (Acinetobacter baumannii [2]): 40.5%

Structure (SMILES): CCCCCCCCCCCCCC(=O)Nc1nc(N)cc(F)n1
Activity (Acinetobacter baumannii [2]): 53.1%

Structure (SMILES): CCCCCCCCCCCCCC(=O)Nc1nc(N)cc(Cl)n1
Activity (3T3-L1 [4]): 100.81% | pIC50 (Acinetobacter baumannii [5]): 4.94 | pIC50 (Acinetobacter baumannii [6]): 4.41 | inhibition at 200 µM [7]: < 50% | MIC (Acinetobacter baumannii [1]): > 256 µg/mL | MIC (Acinetobacter baumannii [3]): 256 µg/mL (≈ 721 µM) | MIC (Acinetobacter baumannii [8]): 0.125 µg/mL | inhibition at 200 µM (Escherichia coli): < 50% | Activity (Acinetobacter baumannii [9]): Active | Activity (3T3-L1 [10]): 100.89% | Activity (3T3-L1 [11]): 101.81% | MIC (Acinetobacter baumannii [12]): 128 µg/mL | pIC50 (Acinetobacter baumannii [13]): 4.36 | inhibition at 200 µM (Staphylococcus aureus): < 50% | fractional inhibitory concentration index (FICI) (Acinetobacter baumannii [14]): 0.25 | Activity (Acinetobacter baumannii [15]): 16.04 | Activity (Acinetobacter baumannii [16]): 65% | Activity (3T3-L1 [17]): 100.68% | MIC (Acinetobacter baumannii [18]): 64 µg/mL | pIC50 (Acinetobacter baumannii [19]): 4.17 | pIC50 (Acinetobacter baumannii [20]): 4.78 | pIC50 (Acinetobacter baumannii [21]): 5.20 | Activity (3T3-L1 [22]): 99.88% | fractional inhibitory concentration index (FICI) (Acinetobacter baumannii [23]): 0.25 | inhibition at 200 µM (Pseudomonas aeruginosa): < 50% | Activity (Acinetobacter baumannii [2]): 69.9% | fractional inhibitory concentration index (FICI) (Acinetobacter baumannii [24]): 0.25

Structure (SMILES): O=C(Cc1cccc(Br)c1)N[C@H]1CCOC1=O
pIC50 (Acinetobacter baumannii [6]): 3.84 | inhibition at 200 µM [7]: < 50% | inhibition at 200 µM (Escherichia coli): < 50% | inhibition at 200 µM (Acinetobacter baumannii [25]): < 50% | pIC50 (Acinetobacter baumannii [13]): 3.92 | inhibition at 200 µM (Staphylococcus aureus): < 50% | pIC50 (Acinetobacter baumannii [19]): 3.71 | pIC50 (Acinetobacter baumannii [20]): 4.64 | pIC50 (Acinetobacter baumannii [21]): 4.07 | inhibition at 200 µM (Pseudomonas aeruginosa): < 50%

Structure (SMILES): O=C(Nc1ncccn1)C1CCC1
MIC (Acinetobacter baumannii [1]): > 256 µg/mL | Activity (Acinetobacter baumannii [2]): 26.8%

Structure (SMILES): O=C(Nc1ncccn1)c1cccc2ccccc12
MIC (Acinetobacter baumannii [1]): > 256 µg/mL | Activity (Acinetobacter baumannii [2]): 9.4%

Structure (SMILES): CC(C)CC(=O)Nc1ncccn1
MIC (Acinetobacter baumannii [1]): > 256 µg/mL | Activity (Acinetobacter baumannii [2]): 3.8%

Second part, led by results:

MIC (Acinetobacter baumannii [1]): > 256 µg/mL
Structure (SMILES): O=C(/C=C/c1ccccc1)Nc1ncccn1
Activity (Acinetobacter baumannii [2]): 13.6%

MIC (Acinetobacter baumannii [1]): > 256 µg/mL
Structure (SMILES): CCCCCCCCCCCCCC(=O)Nc1nc(OC)cc(OC)n1
Activity (Acinetobacter baumannii [2]): 59.3%

MIC (Acinetobacter baumannii [1]): > 256 µg/mL
Structure (SMILES): CCCCCCCCCCCCCC(=O)Nc1nc(Cl)cc(N(C)C)n1
Activity (Acinetobacter baumannii [2]): 40.5%

MIC (Acinetobacter baumannii [1]): > 256 µg/mL
Structure (SMILES): CCCCCCCCCCCCCC(=O)Nc1nc(Cl)cc(N2CCOCC2)n1
Activity (Acinetobacter baumannii [2]): 28.5%

MIC (Acinetobacter baumannii [1]): > 256 µg/mL
Structure (SMILES): O=C(CCc1ccccc1)Nc1ncccn1
Activity (Acinetobacter baumannii [2]): -0.2%

MIC (Acinetobacter baumannii [1]): > 256 µg/mL
Structure (SMILES): Cc1cc(C)c(C(=O)Nc2ncccn2)c(C)c1
Activity (Acinetobacter baumannii [2]): 26.9%

MIC (Acinetobacter baumannii [1]): > 256 µg/mL
Structure (SMILES): O=C(Nc1ncccn1)OCc1ccccc1
Activity (Acinetobacter baumannii [2]): 24.5%

MIC (Acinetobacter baumannii [1]): > 256 µg/mL
Structure (SMILES): O=C(COc1ccccc1)Nc1ncccn1
Activity (Acinetobacter baumannii [2]): 18.2%

MIC (Acinetobacter baumannii [1]): > 256 µg/mL
Structure (SMILES): CCCCCCCCCC(=O)Nc1ncccn1
Activity (Acinetobacter baumannii [2]): 33.2%

MIC (Acinetobacter baumannii [1]): > 256 µg/mL
Structure (SMILES): CCCCCCCCCCCCCC(=O)Nc1nc(Cl)c(Cl)c(Cl)n1
Activity (Acinetobacter baumannii [2]): 32%

MIC (Acinetobacter baumannii [1]): > 256 µg/mL
Structure (SMILES): CCCCCCCCCCCCCC(=O)Nc1nccc(N)n1
Activity (Acinetobacter baumannii [2]): 35.8%

MIC (Acinetobacter baumannii [1]): > 256 µg/mL
Structure (SMILES): CCCCCC(=O)Nc1ncccn1
Activity (Acinetobacter baumannii [2]): 23.3%
